Like-named read-outs stand apart in the source and are kept apart here.
How the values were obtained:
[1] = system: Aspergillus niger (IMI 1745); assay: MIC, Aspergillus niger; type: cell-based; settings: Aspergillus niger, read-out: Minimum inhibitory concentrations (MICs), A. niger
[2] = system: Staphylococcus aureus Strain 1 (BSAC04(1)) (Clinical isolate from Glasgow Royal Infirmary); assay: MIC, Staphylococcus aureus Strain 1; type: cell-based; settings: Staphylococcus aureus, read-out: Minimum inhibitory concentrations (MICs), S aureus 1
In short: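 Broth microdilution in Mueller-Hinton Broth: test sample at 200 μg/ml working concentration, serially doubled across rows, incubated at 37° C. MIC taken from the colour pattern, with sterility and growth controls included.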

[3] = system: clinical strains of S. aureus in the Scottish Clinical Isolates Collection; assay: MIC against collected clinical strains of S. aureus (BSAC03/04/05 (1)-(10)); type: cell-based, Staphylococcus aureus; settings: for MIC: Staphylococcus aureus, read-out: Minimum inhibitory concentrations (MICs)
Source text: In particular, minimum inhibitory concentrations (MICs) against microorganisms (e.g. S. Aureus, Streptococcus faecalis, Aspergillus niger, Candida albicans or Mycobacterium fortuitum) for compounds of the invention may be measured using procedures such as those described in A. J. Drummond and R. D. Waigh “The development of microbiological methods for phytochemical screening” Recent Res. Devel. Phytochem. 4, 143-152 (2000), the disclosures of which document are hereby incorporated by reference.
Sample dilutions were typically prepared by dissolving the test sample (2 mg) in sterile water (10 mL) to provide a working concentration of 200 μg/ml. The test wells on each 96 well microtitre plate were initially inoculated with culture medium (100 μL) using Mueller-Hinton Broth for antibacterial assays and Sabouraud Broth for antifungal assays. A solution of each test sample (100 μL) was added to one row of each plate and a series of doubling dilutions made for successive rows. Incubation was at 37° C. for antibacterial assay and 25° C. for antifungal assay. […] From the observed pattern of colour, the MIC was determined. All tests included sterility and growth controls.
BSAC03/04/05 (1)-(10) refer to collected clinical strains of S. aureus in the Scottish Clinical Isolates Collection.

[4] = value in parentheses, na = not active

Cn1cc(NC(=O)c2cc(NC(=O)c3ccc(/C=C/c4cnc5ccccc5c4)cc3)cn2C)cc1C(=O)NCCN1CCOCC1 [Example 2, 1-Methyl-4-({[1-methyl-4-({4-[(E)-2-(3-quinolinyl)ethenyl]benzoyl}amino)-1H-pyrrol-2-yl]carbonyl}amino)-N-[2-(4-morpholinyl)ethyl]-1H-pyrrole-2-carboxamide]
0.25 µg/mL: MIC ([3]; S. aureus BSAC culture year 2003 number 1) | MIC ([3]; S. aureus BSAC culture year 2003 number 2) | MIC ([3]; S. aureus BSAC culture year 2003 number 3) | MIC ([3]; S. aureus BSAC culture year 2003 number 9) | MIC ([3]; S. aureus BSAC culture year 2003 number 10) | MIC ([3]; S. aureus BSAC culture year 2004 number 1) | MIC ([3]; S. aureus BSAC culture year 2004 number 4) | MIC ([3]; S. aureus BSAC culture year 2004 number 6) | MIC ([3]; S. aureus BSAC culture year 2004 number 8) | MIC ([3]; S. aureus BSAC culture year 2005 number 1) | MIC ([3]; S. aureus BSAC culture year 2005 number 4) | MIC ([3]; S. aureus BSAC culture year 2005 number 5) | MIC ([3]; S. aureus BSAC culture year 2005 number 7) | MIC ([3]; S. aureus BSAC culture year 2005 number 9)
0.16 µM: MIC ([2]; value outside parentheses)
displayed microbicidal activity: microbicidal activity against a number of different strains of Staphylococcus aureus ([3]; result in words)
0.12 µg/mL: MIC [2, 4] | MIC ([3]; S. aureus BSAC culture year 2003 number 4) | MIC ([3]; S. aureus BSAC culture year 2003 number 5) | MIC ([3]; S. aureus BSAC culture year 2003 number 6) | MIC ([3]; S. aureus BSAC culture year 2003 number 7) | MIC ([3]; S. aureus BSAC culture year 2004 number 5) | MIC ([3]; S. aureus BSAC culture year 2004 number 7) | MIC ([3]; S. aureus BSAC culture year 2004 number 9) | MIC ([3]; S. aureus BSAC culture year 2004 number 10) | MIC ([3]; S. aureus BSAC culture year 2005 number 3) | MIC ([3]; S. aureus BSAC culture year 2005 number 6) | MIC ([3]; S. aureus BSAC culture year 2005 number 10)
67 µM: MIC ([1]; value outside parentheses)
0.5 µg/mL: MIC ([3]; S. aureus BSAC culture year 2004 number 2) | MIC ([3]; S. aureus BSAC culture year 2004 number 3) | MIC ([3]; S. aureus BSAC culture year 2005 number 8)
50 µg/mL: MIC [1, 4]
1 µg/mL: MIC ([3]; S. aureus BSAC culture year 2005 number 2)
0.06 µg/mL: MIC ([3]; S. aureus BSAC culture year 2003 number 8)

Reference: US8012967B2, “Minor groove binders” (University of Strathclyde, priority 2006, dated 2011)
